The values below come from patent US20190224222A1, “METHOD OF INHIBITING QUORUM SENSING USING D-GALACTOSE” (Seoul National University R&DB Foundation, priority 2014, published 2019).

Structures are written as SMILES.

One assay concerns Fn AI-2 activity. Nature of the assay: AI-2 activity, bioluminescence of reporter strain V. harveyi BB170. In kind it is cell-based, Vibrio harveyi BB170 (ATCC BAA-1117). Particulars: for Bioluminescence: V. harveyi BB170 + Fn AI-2 10% (v/v), sugar 20 mM, lower = higher inhibition, Fn/AI-2 control 10712312, BB170 alone 856873. The procedure:
The quorum sensing autoinducer, AI-2 stimulates luciferase operon (lux genes) of V. harveyi to induce luciferase expression, resulting in luminescence. Therefore, inhibition of AI-2 activity was confirmed by measuring bioluminescence by AI-2. Bioluminescence mediated by AI-2 was determined using the AI-2 reporter strain V. harveyi BB170. V. harveyi BB170 was cultured in AB medium overnight at 30° C. until OD600 nm=0.7. The bacteria were washed with fresh AB medium and diluted to a concentration of 10^6 cells/ml. Thereafter, V. harveyi BB170 culture broth (5 ml) was mixed with a partially purified F. nucleatum AI-2(′Fn AI-2′) and D-gal (0 or 20 mM) or D-rib (0 or 20 mM). The partially purified Fn AI-2 was obtained by partially purifying the Fn culture broth using a C18 Sep-Pak reverse-phase column (Waters Co., Milford, Mass.). The Fn culture broth or the partially purified Fn AI-2 was added such that a final concentration of AI-2 in the mixture was 10% (vol/vol). 10% (v/v) of Fn AI-2 corresponds to the Fn bacterial number of 1.9×10^8. Then, culture was performed at 30° C. for 1-8 hours. The bioluminescence was measured using a luminometer (GloMax1—Multi detection System, Promega, Madison, Wis.). BB170 is one of V. harveyi bacteria which have a characteristic of recognizing AI-2 to show bioluminescence. The higher bioluminescence value thus measured represents higher AI-2 activity.

Assay [1] has as its system T. forsythia (Tf) biofilm. Nature of the assay: Tf biofilm formation induced by Fn AI-2, crystal violet staining. Format: cell-based, T. forsythia (ATCC 43037). Particulars: for OD590 nm: Tf + Fn AI-2 10% (v/v), sugar 2 mM, 48-72 h, Tf/AI-2 control 0.48, Tf 0.32; for inhibitory effect on Tf biofilm formation, in words: crystal violet, sugars 2 mM. The procedure:
To test biofilm formation by Tf, a test was performed in the same manner as in Example 3. That is, a Tf culture broth (2 ml; a negative control group, the number of bacteria: 2×10^8/ml), a mixture of Tf culture broth (2 ml) and Fn AI-2 (10% (v/v) with respect to the total volume of the mixture with Tf culture broth), or a mixture of Tf culture broth (2 ml) and Fn AI-2 (10% (v/v) with respect to the total volume of the mixture with Tf culture broth) and D-gal (2 mM) was added to a 24-well plate with a glass slip (round, 12 mm radius), and cultured under anaerobic conditions for 48-72 hours. For comparison, 2 mM of D-rib or 2 μM of the furanone compound [(5Z)-4-bromo-5-(bromomethylene)-2(5H)-furanone] was used instead of D-gal to perform the same test.
Biofilms formed on the cover slips were stained with 10% crystal violet [Tris(4-(dimethylamino)phenyl)methylium chloride] for 10 minutes, washed three times with PBS, and destained with 1 ml of acetone-alcohol (20:80, vol/vol). The optical density at 590 nm of the destaining solution containing crystal violet was measured using a microplate reader (a Wallac Victor3 microtiter, PerkinElmer Life Sciences, Waltham, Mass.). The smaller optical density (OD590) measured at 590 nm represents more inhibition of biofilm formation, that is, higher quorum sensing inhibitory effect of the used QSI candidate.

For assay [2], the system named is T. forsythia (Tf) biofilm. Nature of the assay: Tf biofilm formation induced by Fn AI-2, fluorescence staining (confocal). Format: cell-based, T. forsythia (ATCC 43037). Particulars: D-rib or D-gal 200 mM. The method, then:
Further, inhibitory effects of individual QSI candidates on Tf biofilm formation induced by Fn AI-2 were examined by fluorescence staining. 2 ml of Tf culture broth (the number of bacteria: 2×10^8/ml) was used, and Fn AI-2 was used in a volume of 10% (v/v) with respect to the total volume of a mixture with Tf culture broth. As the QSI candidates, 200 mM of D-rib or D-gal was used, and 20 μM of the furanone compound was used. Biofilms formed on the cover slip were stained with fluorescent materials using the live/dead-BacLight viability kit (Invitrogen, Grand Island, N.Y., USA) and observed using a confocal microscope (Carl Zeiss, LSM 700). […] Fluorescence intensities of the obtained individual fluorescence images were quantified using ZEN 2010 program of a confocal microscope, and shown in FIG. 9.

For the next assay, the system named is S. oxalis (So) biofilm. As to the kind of experiment: S. oxalis biofilm formation, crystal violet staining. Format: cell-based, Streptococcus oxalis (ATCC 9811). Particulars: for OD590: So on saliva-coated glass slip, sugar 2 mM, So control 0.59. The method, then:
2 mL (2×10^7/ml) of the culture broth of a representative cariogenic bacterium S. mutans (Sm) and 2 mL (2×10^7/ml) of the culture broth of one of normal oral flora, S. oxalis (SO) were added to a saliva-coated glass slip (round, 12 mm radius), respectively and cultured with 0 mM or 2 mM of D-galactose to form biofilms. […] Further, the biofilms were stained with fluorescent materials using the live/dead-BacLight viability kit (Invitrogen, Grand Island, N.Y., USA), followed by analysis. For comparison, 2 μM of the furanone compound was used instead of D-galactose to perform the same test.

Assay [3] deals with T. forsythia (Tf) biofilm. Nature of the assay: Tf biofilm formation induced by Fn secretory material, transwell, crystal violet. Format: cell-based. The conditions noted are these: for OD590: Fn upper / Tf lower chamber, sugar 2 mM, 48-72 h, Fn/Tf control 0.55, Tf alone 0.17. The procedure: In order to examine efficacies of quorum sensing inhibitor (QSI) candidates on biofilm formation of periodontopathogenic bacteria which is induced by a secretory material of F. nucleatum (Fn), a test was performed using a transwell system. AI-2 naturally secreted by Fn is contained in the secretory material of Fn. Therefore, in the test using the transwell system, Fn AI-2 was not directly added to bacteria, but Fn was put in an upper chamber and Pg or Tf was put in a lower chamber. Biofilms cultured and formed in the presence or absence of QSI candidates were stained with crystal violet, followed by analysis. These conditions are to evaluate whether Pg or Tf biofilm formation is influenced by not a purified AI-2 but an AI-2-containing secretory material naturally secreted by Fn, and whether QSI candidates such as D-gal is able to inhibit the biofilm formation if the biofilm is then formed.
More specifically, the transwell system (24-well) has an upper chamber and a lower chamber which are separated from each other by a membrane of 0.4 μm. 500 μl of F. nucelatum (Fn) culture broth (the number of bacteria: 2×10^7 CFU/ml) was cultured in the upper chamber. A glass slip was placed in the lower chamber, and then the same number of P. gingivalis(Pg) or T. forsythia(Tf) was inoculated in 1 ml of medium and cultured for 48-72 hours. The same QSI candidates were added to the upper and lower chambers. As the QSI candidates, 2 mM of sugar (D-rib or D-gal) was used and 2 μM of the furanone compound [(5Z)-4-bromo-5-(bromomethylene)-2(5H)-furanone] was used. In order to examine whether biofilm formation of the bacteria in the lower chamber is influenced by Fn secretory material and QSI candidates, the biofilms formed on the glass slip were stained with crystal violet, and then quantified (see Examples 3 to 5).

Take `O=C[C@H](O)[C@@H](O)[C@@H](O)[C@H](O)CO` [D-gal, D-galactose]: in the assay with Fn AI-2 activity (D-gal 20 mM vs D-rib 20 mM), the “bioluminescence relative to the bioluminescence upon addition of D-rib” value is reported as “about 20%”. Besides, in the assay on Fn AI-2 activity, the Bioluminescence is listed as 1138752. In addition, the “quorum sensing inhibitory efficacy relative to D-ribose, in words” value in the assay with Fn AI-2 activity (general statement of the specification) is given as “twice higher than that of D-ribose”. In addition, the OD590 nm in assay [1] is given as 0.2. The “inhibitory effect on Tf biofilm formation, in words” value is reported as “excellent inhibitory effect” in assay [1] and “most excellent inhibitory effect” in assay [2]. Also, the OD590 with S. oxalis (So) biofilm worked out at 1.07; in assay [3], 0.36. In addition, in the assay with S. oxalis (So) biofilm (crystal violet, D-gal 2 mM compared to D-rib and the furanone compound), the “effect on So biofilm formation, in words” value is on record as “did not inhibit but increased biofilm formation”. Moreover, the “inhibitory effect on Tf biofilm formation induced by Fn secretory material, in words” value in assay [3] (D-gal 2 mM compared to D-rib 2 mM) is listed as “remarkably excellent inhibitory effect, compared to D-rib”.

For `O=C[C@H](O)[C@H](O)[C@H](O)CO` [D-rib, D-ribose, reference compound], in the assay with Fn AI-2 activity, the Bioluminescence was determined as 5481975. The OD590 nm in assay [1] came out at 0.41. Moreover, the figures for the “inhibitory effect on Tf biofilm formation, in words” value in assay [1] and in assay [2] were “significant inhibitory effect” and “inhibited”, respectively. For the same compound, the OD590 is 0.85 in the assay with S. oxalis (So) biofilm and 0.69 in assay [3].
